Experimental data taken from PubChem BioAssay AID330 (DTP/NCI, 2004).
Where “and” joins values, the source holds several entries; their conditions need not be identical. Equal values may be shown once. Inconclusive results and toxic doses are left out.

Tested on: P388 leukemia ip, CD2F1 mice, survival T/C
Assay: NCI In Vivo Anticancer Drug Screen. Data for tumor model P388 Leukemia (intraperitoneal) in CD2F1 (CDF1) mice
Details: endpoint: median survival time, higher = longer survival
How it was run: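 Mice carrying the transplanted tumor received test compound or vehicle. Survival was recorded in each group, and the value is the treated-group measurement divided by that of the vehicle-treated control group.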

[1] = dose: 50.0 mg/kg/injection, schedule: Q01DX005 (ip), vehicle: saline + Tween-80 + alcohol
[2] = dose: 100.0 mg/kg/injection, schedule: Q01DX005 (ip), vehicle: saline + Tween-80 + alcohol
[3] = dose: 60.0 mg/kg/injection, schedule: Q01DX005 (ip), vehicle: saline with Tween-80
[4] = dose: 50.0 mg/kg/injection, schedule: Q01DX005 (ip), vehicle: Klucel (hydroxypropylcellulose) (HPC)
[5] = dose: 100.0 mg/kg/injection, schedule: Q01DX005 (ip), vehicle: Klucel (hydroxypropylcellulose) (HPC)
[6] = dose: 50.0 mg/kg/injection, schedule: Q01DX009 (ip), vehicle: saline
[7] = dose: 100.0 mg/kg/injection, schedule: Q01DX009 (ip), vehicle: saline
[8] = dose: 200.0 mg/kg/injection, schedule: Q01DX009 (ip), vehicle: saline
[9] = dose: 400.0 mg/kg/injection, schedule: Q01DX009 (ip), vehicle: saline
[10] = dose: 25.0 mg/kg/injection, schedule: Q04DX003 (ip), vehicle: saline
[11] = dose: 25.0 mg/kg/injection, schedule: Q01DX005 (ip), vehicle: Klucel (hydroxypropylcellulose) (HPC)

## CC(=O)SCCCn1c(=O)n(CCCSC(C)=O)c(=O)n(CCCSC(C)=O)c1=O
[1]
  T/C: 114 % of control
[2]
  T/C: 110 % of control
dose: 200.0 mg/kg/injection, schedule: Q01DX005 (ip), vehicle: saline + Tween-80 + alcohol
  T/C: 116 % of control

## CCCCCN(CCC)CCCCCCCCCN1CCCc2cc(OC)ccc21
[1]
  T/C: 105 % of control
[2]
  T/C: 110 % of control

## CCn1c(=S)[nH]c2sc3c(c2c1=O)CCCC3
[3]
  T/C: 92 % of control
dose: 120.0 mg/kg/injection, schedule: Q01DX005 (ip), vehicle: saline with Tween-80
  T/C: 89 % of control

## CCOC(C)c1nc2c([nH]1)c(=O)n(C)c(=O)n2C (stereo unspecified)
dose: 60.0 mg/kg/injection, schedule: Q01DX005 (ip), vehicle: saline
  T/C: 99 % of control
dose: 120.0 mg/kg/injection, schedule: Q01DX005 (ip), vehicle: saline
  T/C: 101 % of control
dose: 240.0 mg/kg/injection, schedule: Q01DX005 (ip), vehicle: saline
  T/C: 95 % of control

## CN1C(=O)C(CC(N)=O)NC1=S (stereo unspecified)
dose: 60.0 mg/kg/injection, schedule: Q01DX005 (ip), vehicle: Klucel (hydroxypropylcellulose) (HPC)
  T/C: 95 % of control
dose: 120.0 mg/kg/injection, schedule: Q01DX005 (ip), vehicle: Klucel (hydroxypropylcellulose) (HPC)
  T/C: 86 % of control
dose: 240.0 mg/kg/injection, schedule: Q01DX005 (ip), vehicle: Klucel (hydroxypropylcellulose) (HPC)
  T/C: 93 % of control

## O=c1[nH]c2cc([N+](=O)[O-])ccc2nc1/C=C(\O)c1ccco1
dose: 60.0 mg/kg/injection, schedule: Q01DX005 (ip), vehicle: Klucel + Tween-80
  T/C: 100 % of control
dose: 120.0 mg/kg/injection, schedule: Q01DX005 (ip), vehicle: Klucel + Tween-80
  T/C: 94 % of control
dose: 240.0 mg/kg/injection, schedule: Q01DX005 (ip), vehicle: Klucel + Tween-80
  T/C: 94 % of control

## O=C(O)c1cccc2c1Cc1cc([N+](=O)[O-])ccc1-2
[4]
  T/C: 95 % of control
[5]
  T/C: 103 % of control

## O=C1CSC(c2ccoc2)N1N1C(=O)CSC1c1ccoc1 (stereo unspecified)
dose: 50.0 mg/kg/injection, schedule: Q01DX005 (ip), vehicle: saline with Tween-80
  T/C: 90 % of control
dose: 100.0 mg/kg/injection, schedule: Q01DX005 (ip), vehicle: saline with Tween-80
  T/C: 87 % of control
dose: 200.0 mg/kg/injection, schedule: Q01DX005 (ip), vehicle: saline with Tween-80
  T/C: 90 % of control

## NC(N)=NCCCC(N)C(=O)O (stereo unspecified)
[6]
  T/C: 119 % of control
[7]
  T/C: 100 % of control and 122 % of control
[8]
  T/C: 105 % of control and 110 % of control
[9]
  T/C: 100 % of control

## Oc1cccnc1CN1CCOCC1
[6]
  T/C: 101 % of control
[7]
  T/C: 93 % of control
[8]
  T/C: 101 % of control
[9]
  T/C: 101 % of control

## O=C(c1ccccc1)c1c(CO[N+](=O)[O-])n([O-])c2ccccc2[n+]1=O
dose: 15.0 mg/kg/injection, schedule: Q01DX005 (ip), vehicle: saline with Tween-80
  T/C: 105 % of control
dose: 30.0 mg/kg/injection, schedule: Q01DX005 (ip), vehicle: saline with Tween-80
  T/C: 109 % of control
[3]
  T/C: 104 % of control and 109 % of control

## N#CC(C#N)=CC(C#N)C#N
dose: 12.5 mg/kg/injection, schedule: Q01DX005 (ip), vehicle: saline
  T/C: 104 % of control
dose: 25.0 mg/kg/injection, schedule: Q01DX005 (ip), vehicle: saline
  T/C: 101 % of control
dose: 50.0 mg/kg/injection, schedule: Q01DX005 (ip), vehicle: saline
  T/C: 107 % of control and 92 % of control

## C=C1C(C)C2C(Cc3ccccc3)NC(=O)C23C(OC(C)=O)/C=C/C(C)(O)CC(C)C/C=C/C3C1O (stereo unspecified)
dose: 3.13 mg/kg/injection, schedule: Q01DX009 (ip), vehicle: saline with Tween-80
  T/C: 121 % of control
dose: 6.25 mg/kg/injection, schedule: Q01DX009 (ip), vehicle: saline with Tween-80
  T/C: 124 % of control

## CC[n+]1c(-c2ccccc2)c2cc(N)ccc2c2ccc(N)cc21
dose: 0.39 mg/kg/injection, schedule: Q04DX003 (ip), vehicle: saline
  T/C: 101 % of control
dose: 0.39 mg/kg/injection, schedule: Q04DX003 (ip), vehicle: water
  T/C: 103 % of control
dose: 0.78 mg/kg/injection, schedule: Q04DX003 (ip), vehicle: saline
  T/C: 100 % of control
dose: 0.78 mg/kg/injection, schedule: Q04DX003 (ip), vehicle: water
  T/C: 104 % of control
dose: 1.56 mg/kg/injection, schedule: Q01DX009 (ip), vehicle: saline
  T/C: 150 % of control
dose: 1.56 mg/kg/injection, schedule: Q04DX003 (ip), vehicle: saline
  T/C: 106 % of control
dose: 1.56 mg/kg/injection, schedule: Q04DX003 (ip), vehicle: water
  T/C: 113 % of control
dose: 3.13 mg/kg/injection, schedule: Q01DX009 (ip), vehicle: saline
  T/C: 153 % of control
dose: 3.13 mg/kg/injection, schedule: Q01DX009 (ip), vehicle: water
  T/C: 161 % of control
dose: 3.13 mg/kg/injection, schedule: Q04DX003 (ip), vehicle: saline
  T/C: 114 % of control
dose: 3.13 mg/kg/injection, schedule: Q04DX003 (ip), vehicle: water
  T/C: 123 % of control
dose: 6.25 mg/kg/injection, schedule: Q01DX009 (ip), vehicle: saline
  T/C: 170 % of control
dose: 18.0 mg/kg/injection, schedule: Q04DX003 (ip), vehicle: saline sonified
  T/C: 150 % of control
[10]
  T/C: 117 % of control
dose: 27.0 mg/kg/injection, schedule: Q04DX003 (ip), vehicle: saline sonified
  T/C: 109 % of control

## CN(C)c1ccc(C(O)C(N)=O)cc1 (stereo unspecified)
dose: 6.25 mg/kg/injection, schedule: Q04DX003 (ip), vehicle: saline
  T/C: 100 % of control
dose: 12.5 mg/kg/injection, schedule: Q04DX003 (ip), vehicle: saline
  T/C: 104 % of control
[10]
  T/C: 100 % of control

## CCn1cc(C(=O)O)c(=O)c2ccc(-c3cn(C)nc3C)nc21 (tested in a mixture with another compound)
dose: 50.0 mg/kg/injection, schedule: Q04DX002 (ip), vehicle: saline
  T/C: 99 % of control
dose: 100.0 mg/kg/injection, schedule: Q04DX002 (ip), vehicle: saline
  T/C: 99 % of control
dose: 200.0 mg/kg/injection, schedule: Q04DX002 (ip), vehicle: saline
  T/C: 98 % of control

## COc1ccc(OC)c(NC(=O)Sc2c(Cl)c(Cl)nc(Cl)c2Cl)c1
dose: 50.0 mg/kg/injection, schedule: Q01DX009 (ip), vehicle: Klucel (hydroxypropylcellulose) (HPC)
  T/C: 120 % of control

## Clc1nnc(Cl)c(Cl)c1Cl
dose: 0.1 mg/kg/injection, schedule: Q01DX009 (ip), vehicle: saline with Tween-80
  T/C: 100 % of control
dose: 0.1 mg/kg/injection, schedule: Q04DX003 (ip), vehicle: saline with Tween-80
  T/C: 100 % of control
dose: 0.2 mg/kg/injection, schedule: Q01DX009 (ip), vehicle: saline with Tween-80
  T/C: 95 % of control
dose: 0.2 mg/kg/injection, schedule: Q04DX003 (ip), vehicle: saline with Tween-80
  T/C: 100 % of control
dose: 0.38 mg/kg/injection, schedule: Q04DX003 (ip), vehicle: saline with Tween-80
  T/C: 90 % of control
dose: 0.4 mg/kg/injection, schedule: Q04DX003 (ip), vehicle: saline with Tween-80
  T/C: 100 % of control

## COc1ccc(OC)c(C(=O)c2ccccc2C(=O)O)c1
[11]
  T/C: 102 % of control
[4]
  T/C: 100 % of control
[5]
  T/C: 96 % of control

## CN(C)/C(=N\N=C(/c1ccc(Cl)cc1)N(C)C)c1ccc(Cl)cc1
dose: 100.0 mg/kg/injection, schedule: Q04DX003 (ip), vehicle: saline with Tween-80
  T/C: 97 % of control
dose: 200.0 mg/kg/injection, schedule: Q04DX003 (ip), vehicle: saline with Tween-80
  T/C: 105 % of control
dose: 400.0 mg/kg/injection, schedule: Q04DX003 (ip), vehicle: saline with Tween-80
  T/C: 105 % of control

## COc1ccc2cc1Oc1ccc(cc1)CC1c3cc(OC)c(cc3CCN1C)Oc1c(OC)c(OC)cc3c1C(C2)N(C)CC3 (stereo unspecified)
dose: 12.5 mg/kg/injection, schedule: Q01DX005 (ip), vehicle: Klucel (hydroxypropylcellulose) (HPC)
  T/C: 92 % of control
[11]
  T/C: 95 % of control
[4]
  T/C: 94 % of control
dose: 100.0 mg/kg/injection, schedule: Q01DX001 (ip), vehicle: saline with Tween-80
  T/C: 98 % of control
[5]
  T/C: 86 % of control
dose: 200.0 mg/kg/injection, schedule: Q01DX001 (ip), vehicle: saline with Tween-80
  T/C: 86 % of control
dose: 400.0 mg/kg/injection, schedule: Q01DX001 (ip), vehicle: saline with Tween-80
  T/C: 86 % of control

## O=C(CCCl)OCCCl
dose: 50.0 mg/kg/injection, schedule: Q01DX009 (ip), vehicle: saline sonified
  T/C: 95 % of control
dose: 100.0 mg/kg/injection, schedule: Q01DX009 (ip), vehicle: saline sonified
  T/C: 100 % of control
dose: 200.0 mg/kg/injection, schedule: Q01DX009 (ip), vehicle: saline sonified
  T/C: 90 % of control
